Data as given in patent US20200245620A1 (priority 2018, published 2020).
Converted amounts (≈) assume the structure as drawn. “And” between values parts separate entries of the source, which are not always exact repeats. Identical values can stand only once. Like-named read-outs stand apart in the source and are kept apart here.

Experiments:
rust of wheat = details: in vivo
Fusarium asiaticum = test: microbe, parasite or virus in culture; format: cell-based
wheat scab fungi = format: in vivo
wheat scab = format: in vivo
Fusarium graminearum = test: microbe, parasite or virus in culture; format: cell-based; details: for EC50: F.g sensitive strains
sheath blight of wheat = test: Field efficacy on wheat diseases; format: in vivo; details: 40 g a.i./Mu
Protocol: (§1) The field prevention and control efficacy of the fungicidal composition preparations of embodiments 1-8 on wheat diseases was experimented. The experimental field was arranged in Jiangsu Yancheng Xinyang Farm. The wheat variety was Huaimai 33. At the initial stage of wheat blooming, a Nongjiale 16L knapsack electric sprayer was adopted to carry out application for the first time, application was carried out for the second time after five days, water consumption was 50 kg/Mu, the area of each plot was 50 square meters, each treatment was repeated for three times, and the fungicidal composition was not applied on the blank control. Meanwhile, 80 g of carbendazim wettable powder which was 50 percent was used as a control agent for treatment per mu. According to a corresponding method specified by the industrial standard of Guidelines for the Field Efficacy Trials of Fungicides issued by the Ministry of Agriculture, the occurrences of powdery mildew, rust, sheath blight and leaf blight of wheat were investigated at the stage of milky ripeness, disease indexes and prevention and control effects were calculated, and the result is shown in table 7.

powdery mildew of wheat = test: Field efficacy on wheat diseases; format: in vivo; details: 40 g a.i./Mu
Protocol: as §1

leaf blight of wheat = test: Field efficacy on wheat diseases; format: in vivo; details: 40 g a.i./Mu
Protocol: as §1

[1] = system: barley scab (fusarium head blight); format: in vivo
barley rust = details: in vivo
[2] = system: Carbendazim-resistant fusarium asiaticum; test: microbe, parasite or virus in culture; format: cell-based; details: for inhibition at 1 µg/mL / inhibition at 10 µg/mL / inhibition at 100 µg/mL / inhibition at 1000 µg/mL / inhibition at 10000 µg/mL: Fusarium asiaticum, read-out: DON Biosynthesis Inhibition Rate
Tri5 gene = format: cell-based, fusarium asiaticum
[3] = system: barley scab (fusarium head blight); format: in vivo; remark: listed apart in the source
barley powdery mildew = test: Field efficacy on barley diseases; format: in vivo
Protocol: (§2) The field prevention and control efficacy of the fungicidal composition preparations of embodiments 1-8 on barley diseases was experimented, wherein different doses of single jinggangmycin agent and single ipconazole agent were designed for treatment. In 2014, application was carried out for the first time at the initial stage of barley blooming, application was carried out for the second time after five days, water consumption was 50 kg/Mu, the area of each plot was 50 square meters, each treatment was repeated for three times, and the fungicidal composition was not applied on the blank control. A conventional agent, polyketone wettable powder, was adopted as a control agent. According to a corresponding method specified by the industrial standard of Guidelines for the Field Efficacy Trials of Fungicides issued by the Ministry of Agriculture, the occurrences of barley scab, powdery mildew, rust and leaf blight were investigated at the stage of milky ripeness, disease indexes and prevention and control effects were calculated, and the result is shown in table 8. One hundred and fifty barley ears were sampled randomly every five treated points at the stage of wax ripeness, taken in for threshing and assayed according to the method of application embodiment 1, and toxin contents of the kernels were calculated.

barley leaf blight = test: Field efficacy on barley diseases; format: in vivo
Protocol: as §2

[4] = Fusarium asiaticum, read-out: Growth Inhibition Rate

COC(=O)Nc1nc2ccccc2[nH]1 [Carbendazim, carbendazim]
Disease Index Prevention Effect, Rust (rust of wheat): 61.24%
EC50 (Fusarium asiaticum; Fusarium asiaticum): 0.45 µg/mL (≈ 2.35 µM)
DON Contamination Reduction Rate (wheat scab fungi; 40 g a.i./Mu): 58.42%
Grain Toxin Content (wheat scab fungi; 40 g a.i./Mu): 4.42 μg of toxin/g of kernels
Disease Index Prevention Effect, Actual Prevention Effect (wheat scab; 40 g a.i./Mu): 67.5%
EC50 (Fusarium graminearum; Fusarium graminearum): 0.45 µg/mL (≈ 2.35 µM)
Disease Index Prevention Effect, Sheath Blight (sheath blight of wheat): 44.65%
Disease Index Prevention Effect, Powdery Mildew (powdery mildew of wheat): 52.62%
Disease Index Prevention Effect, Leaf Blight (leaf blight of wheat): 48.53%

OCC1=C[C@H](N[C@H]2C[C@H](CO)[C@@H](O[C@@H]3O[C@H](CO)[C@@H](O)[C@H](O)[C@H]3O)[C@H](O)[C@H]2O)[C@H](O)[C@@H](O)[C@@H]1O [Jinggangmycin]
Disease Index Prevention Effect, Fusarium head blight ([1]; jinggangmycin 5 g a.i./Mu): 4.54%
Disease Index Prevention Effect, Fusarium head blight ([1]; jinggangmycin 10 g a.i./Mu): 12.58%
Disease Index Prevention Effect, Rust (barley rust): 0%
inhibition at 1 µg/mL ([2]; 168 h): 28.6%
inhibition at 10 µg/mL ([2]; 168 h): 35.5%
inhibition at 100 µg/mL ([2]; 168 h): 45.2%
inhibition at 1000 µg/mL ([2]; 168 h): 65.5%
inhibition at 10000 µg/mL ([2]; 168 h): 75.9%
inhibition at 1 µg/mL ([2]; 336 h): 1.7%
inhibition at 10 µg/mL ([2]; 336 h): 7.87%
inhibition at 100 µg/mL ([2]; 336 h): 29.9%
inhibition at 1000 µg/mL ([2]; 336 h): 57%
inhibition at 10000 µg/mL ([2]; 336 h): 75.4%
Rate of Inhibition on Relative Expression Level of Tri5 Gene (Tri5 gene): 66% and 84% and 87% and 90% and 59%
Average Fungal Colony Diameter (Fusarium asiaticum): 75.6 mm and 69.4 mm and 76.3 mm
inhibitory activity on the growth in vitro (Fusarium asiaticum): almost does not have inhibitory activity
synergistic effect for ipconazole in inhibiting hyphal growth in vitro (Fusarium asiaticum): does not have a synergistic effect
inhibition at 50 µg/mL (Fusarium asiaticum; [4]): 6.5 to 7.8%
DON Contamination Reduction Rate (wheat scab fungi; 2 g a.i./Mu): 16.18%
Grain Toxin Content (wheat scab fungi; 2 g a.i./Mu): 8.91 μg of toxin/g of kernels
DON Contamination Reduction Rate (wheat scab fungi; jinggangmycin 4 g a.i./Mu): 19.00%
Grain Toxin Content (wheat scab fungi; jinggangmycin 4 g a.i./Mu): 8.61 μg of toxin/g of kernels
DON Contamination Reduction Rate (wheat scab fungi; jinggangmycin 8 g a.i./Mu): 37.72%
Grain Toxin Content (wheat scab fungi; jinggangmycin 8 g a.i./Mu): 6.62 μg of toxin/g of kernels
DON Contamination Reduction Rate (wheat scab fungi; jinggangmycin 10 g a.i./Mu): 41.58%
Grain Toxin Content (wheat scab fungi; jinggangmycin 10 g a.i./Mu): 6.21 μg of toxin/g of kernels
DON Contamination Reduction Rate (wheat scab fungi; jinggangmycin 12 g a.i./Mu): 50.99%
Grain Toxin Content (wheat scab fungi; jinggangmycin 12 g a.i./Mu): 5.21 μg of toxin/g of kernels
DON Contamination Reduction Rate (wheat scab fungi; jinggangmycin 16 g a.i./Mu): 54.37%
Grain Toxin Content (wheat scab fungi; jinggangmycin 16 g a.i./Mu): 4.85 μg of toxin/g of kernels
Disease Index Prevention Effect, Actual Prevention Effect (wheat scab; 2 g a.i./Mu): 0%
Disease Index Prevention Effect, Actual Prevention Effect (wheat scab; jinggangmycin 4 g a.i./Mu): 8.65%
Disease Index Prevention Effect, Actual Prevention Effect (wheat scab; jinggangmycin 8 g a.i./Mu): 10.24%
Disease Index Prevention Effect, Actual Prevention Effect (wheat scab; jinggangmycin 10 g a.i./Mu): 14.31%
Disease Index Prevention Effect, Actual Prevention Effect (wheat scab; jinggangmycin 12 g a.i./Mu): 16.54%
Disease Index Prevention Effect, Actual Prevention Effect (wheat scab; jinggangmycin 16 g a.i./Mu): 18.65%
Grain Toxin Content ([3]; jinggangmycin 5 g a.i./Mu): 5.28 mg of DON/Kg of kernel
Toxin Reduction Percentage ([3]; jinggangmycin 5 g a.i./Mu): 38.10%
Grain Toxin Content ([3]; jinggangmycin 10 g a.i./Mu): 4.62 mg of DON/Kg of kernel
Toxin Reduction Percentage ([3]; jinggangmycin 10 g a.i./Mu): 45.84%
inhibition at 50 µg/mL (Fusarium graminearum; Fusarium graminearum, read-out: Growth Inhibition Rate, sensitive strains, 50 μg/mL): 6.5 to 7.8%
synergistic effect for ipconazole in inhibiting hyphal growth in vitro (Fusarium graminearum; jinggangmycin 0.1-50 μg/mL with ipconazole 0.05 or 0.1 μg/mL): does not have a synergistic effect
Average Fungal Colony Diameter (Fusarium graminearum; sensitive strains, 0.1 μg/mL): 76.3 mm
Average Fungal Colony Diameter (Fusarium graminearum; sensitive strains, 1 μg/mL): 76.2 mm
Average Fungal Colony Diameter (Fusarium graminearum; sensitive strains, 10 μg/mL): 75.4 mm
Average Fungal Colony Diameter (Fusarium graminearum; sensitive strains, 50 μg/mL): 70.3 mm
Growth Inhibition Rate (Fusarium graminearum; sensitive strains, 50 μg/mL): 6.52%
Disease Index Prevention Effect, Powdery Mildew (barley powdery mildew; jinggangmycin 5 g a.i./Mu): 0%
Disease Index Prevention Effect, Powdery Mildew (barley powdery mildew; jinggangmycin 10 g a.i./Mu): 0%
Disease Index Prevention Effect, Leaf Blight (barley leaf blight; jinggangmycin 5 g a.i./Mu): 0%
Disease Index Prevention Effect, Leaf Blight (barley leaf blight; jinggangmycin 10 g a.i./Mu): 0%

CC(C)C1CCC(Cc2ccc(Cl)cc2)C1(O)Cn1cncn1 (stereo not shown) [Ipconazole]
Disease Index Prevention Effect, Fusarium head blight ([1]; ipconazole 5 g a.i./Mu): 43.84%
Disease Index Prevention Effect, Fusarium head blight ([1]; ipconazole 10 g a.i./Mu): 62.41%
Disease Index Prevention Effect, Rust (barley rust): 74.25% and 82.65%
DON Biosynthesis Inhibition Rate [2]: 0.36% and 0.31%
Toxin Production Capability [2]: 87.68 μgDON/g by dry weight of hyphae and 52.16 μgDON/g by dry weight of hyphae
inhibitory effects on the toxin biosynthesis capability of the fusaria [2]: does not have significant inhibitory effects
inhibition at 0.0125 µg/mL (Fusarium asiaticum; [4]): 29.5%
inhibition at 0.025 µg/mL (Fusarium asiaticum; [4]): 38.6%
inhibition at 0.05 µg/mL (Fusarium asiaticum; [4]): 41.7%
inhibition at 0.1 µg/mL (Fusarium asiaticum; [4]): > 50%
inhibition at 0.2 µg/mL (Fusarium asiaticum; [4]): 76.6%
DON Contamination Reduction Rate (wheat scab fungi; ipconazole 4 g a.i./Mu): 49.11%
Grain Toxin Content (wheat scab fungi; ipconazole 4 g a.i./Mu): 5.41 μg of toxin/g of kernels
DON Contamination Reduction Rate (wheat scab fungi; ipconazole 6 g a.i./Mu): 59.08%
Grain Toxin Content (wheat scab fungi; ipconazole 6 g a.i./Mu): 4.35 μg of toxin/g of kernels
DON Contamination Reduction Rate (wheat scab fungi; ipconazole 8 g a.i./Mu): 61.24%
Grain Toxin Content (wheat scab fungi; ipconazole 8 g a.i./Mu): 4.12 μg of toxin/g of kernels
DON Contamination Reduction Rate (wheat scab fungi; ipconazole 10 g a.i./Mu): 63.78%
Grain Toxin Content (wheat scab fungi; ipconazole 10 g a.i./Mu): 3.85 μg of toxin/g of kernels
DON Contamination Reduction Rate (wheat scab fungi; ipconazole 16 g a.i./Mu): 71.50%
Grain Toxin Content (wheat scab fungi; ipconazole 16 g a.i./Mu): 3.03 μg of toxin/g of kernels
Disease Index Prevention Effect, Actual Prevention Effect (wheat scab; ipconazole 4 g a.i./Mu): 42.65%
Disease Index Prevention Effect, Actual Prevention Effect (wheat scab; ipconazole 6 g a.i./Mu): 53.45%
Disease Index Prevention Effect, Actual Prevention Effect (wheat scab; ipconazole 8 g a.i./Mu): 67.58%
Disease Index Prevention Effect, Actual Prevention Effect (wheat scab; ipconazole 10 g a.i./Mu): 72.41%
Disease Index Prevention Effect, Actual Prevention Effect (wheat scab; ipconazole 16 g a.i./Mu): 80.33%
Grain Toxin Content ([3]; ipconazole 5 g a.i./Mu): 3.54 mg of DON/Kg of kernel
Toxin Reduction Percentage ([3]; ipconazole 5 g a.i./Mu): 58.50%
Grain Toxin Content ([3]; ipconazole 10 g a.i./Mu): 2.57 mg of DON/Kg of kernel
Toxin Reduction Percentage ([3]; ipconazole 10 g a.i./Mu): 69.87%
EC50 (Fusarium graminearum; Fusarium graminearum): 0.89 µg/mL (≈ 2.67 µM)
inhibition at 0.0125 µg/mL (Fusarium graminearum; Fusarium graminearum, read-out: Growth Inhibition Rate, sensitive strains, 0.0125 μg/mL): 28.9%
inhibition at 0.025 µg/mL (Fusarium graminearum; Fusarium graminearum, read-out: Growth Inhibition Rate, sensitive strains, 0.025 μg/mL): 38.3%
inhibition at 0.05 µg/mL (Fusarium graminearum; Fusarium graminearum, read-out: Growth Inhibition Rate, sensitive strains, 0.05 μg/mL): 40.8%
inhibition at 0.1 µg/mL (Fusarium graminearum; Fusarium graminearum, read-out: Growth Inhibition Rate, sensitive strains, 0.1 μg/mL): > 50%
inhibition at 0.2 µg/mL (Fusarium graminearum; Fusarium graminearum, read-out: Growth Inhibition Rate, sensitive strains, 0.2 μg/mL): 77.1%
Average Fungal Colony Diameter (Fusarium graminearum; sensitive strains, 0.0125 μg/mL): 53.5 mm
Average Fungal Colony Diameter (Fusarium graminearum; sensitive strains, 0.025 μg/mL): 46.4 mm
Average Fungal Colony Diameter (Fusarium graminearum; sensitive strains, 0.05 μg/mL): 44.5 mm
Average Fungal Colony Diameter (Fusarium graminearum; sensitive strains, 0.1 μg/mL): 31.8 mm
Average Fungal Colony Diameter (Fusarium graminearum; sensitive strains, 0.2 μg/mL): 17.2 mm
Disease Index Prevention Effect, Powdery Mildew (barley powdery mildew; ipconazole 5 g a.i./Mu): 76.24%
Disease Index Prevention Effect, Powdery Mildew (barley powdery mildew; ipconazole 10 g a.i./Mu): 85.64%
Disease Index Prevention Effect, Leaf Blight (barley leaf blight; ipconazole 5 g a.i./Mu): 64.29%
Disease Index Prevention Effect, Leaf Blight (barley leaf blight; ipconazole 10 g a.i./Mu): 75.34%

CCOC(=O)C(C#N)=C(N)c1ccccc1 [Phenamacril, phenamacril]
EC50 (Fusarium graminearum): 0.165 µg/mL (≈ 0.763 µM)
